Positions of bridges follow the written chain, without caps; N, C: chain ends. Non-standard residues stand in square brackets, D forms with d. Residues, ends and D or L forms follow the SMILES beside them. *: point of attachment. 5FAM = O=C1OC2(c3ccc(O)cc3Oc3cc(O)ccc32)c2ccc(C(=O)*)cc21; βAla = NCCC(=O)O
Columns and labels:
[1] = Fluorescence anisotropy with empty liposomes (specificity control); assay type: binding; settings: CP^F 50 nM
Protocol: In order to analyze the binding affinity and specificity of CPs to TmrAB, we established a fluorescence polarization assay. Fluorescein-labeled CP^Fs were incubated with increasing concentrations of TmrAB reconstituted in liposomes at a protein-to-lipid ratio of 1:20 (w/w). […] To address whether the CPs recognize a linear or non-linear epitope, we examined the binding of CP^Fs after disrupting the quaternary and tertiary structure of TmrAB complexes by adding anionic detergent SDS.
Figure 2. […] (A, B) Equilibrium binding analysis. Fluorescence anisotropy of CP^Fs (50 nM) was determined at λex/em = 485/520 nm with increasing concentrations of TmrAB which was reconstituted in liposomes. TmrAB concentrations were calculated based on the random (50/50%) orientation in proteoliposomes ([Stefan et al., 2020]). As a control, equal amounts of empty liposomes were added to CP^Fs (dashed lines, open symbols). The difference in fluorescence polarization was normalized to free (0%) and 100% bound CP^F. Mean values ± SD (n = 3) are shown, and data were analyzed by a one-site binding model. […] Streptavidin beads loaded with CP14^B (1 µM) were mixed with purified TmrAB (60 nM) for 1 hr at 4°C. Beads were washed and bound TmrAB was eluted by adding SDS loading buffer for 10 min at 95°C. Amounts of TmrA in input (I), flow-through (FT), wash fraction (W), and eluate (E) were analyzed by SDS-PAGE and immunoblotting (α-His). Beads without CP^B served as negative control (right panel). (D) One-step purification of TmrAB via immobilized CP14^B matrices. Streptavidin-agarose beads were loaded with CP14^B (1 µM) and mixed with DDM-solubilized membranes of E. coli containing TmrAB as described in (C). Bound TmrAB was eluted in SDS loading buffer and analyzed by SDS-PAGE (silver stain). (E) Native mass spectrometry. TmrAB (4 µM) was buffer exchanged to ESI buffer and incubated with a 2-fold molar excess of CP14^F for 10 min on ice. Protein complexes were investigated by ESI-TOF-mass spectrometry. […] Figure 2—source data 1. Source data for Figure 2. Figure 2—figure supplement 1. […] (A) CP^Bs-mediated isolation of solubilized TmrAB. Streptavidin matrices were loaded with CP^Bs (1 µM) and incubated with purified TmrAB (60 nM) for 1 hr at 4°C. Beads without CP^Bs served as control (see Figure 2C). Bound TmrAB complexes were eluted by the addition of SDS loading buffer for 10 min at 95°C. TmrAB in input (I), flow-through (FT), washing fraction (W), and eluate (E) was analyzed by SDS-PAGE and immunoblotting (α-His). […] Bound TmrAB complexes were eluted in SDS loading buffer and analyzed by SDS-PAGE (silver stain). […] CP^F-TmrAB complexes were analyzed by gel filtration. […] Fluorescence anisotropy was determined at λex/em = 485/520 nm. […]

TmrAB = experiment: Competition of CP^F binding by substrate peptides (fluorescence anisotropy); design: species or system Thermus thermophilus
Excerpt: To elucidate the mechanistic basis for the inhibition of ATP hydrolysis and substrate transport, we investigated the effects of CPs on substrate binding. In the first approach, fluorescent CP^Fs were used as reporters in fluorescence polarization. […] In addition, we examined the impact of CP^Bs on ATP binding to TmrAB by scintillation proximity assays (SPA) (Figure 4C). […] Taken together, CPs are high-affinity allosteric inhibitors of TmrAB that leave ATP binding and substrate interaction largely unaffected, while impairing ATP hydrolysis and substrate translocation across the membrane.
Figure 4. […] (A) CP^Fs binding TmrAB is not affected by substrate peptide binding. […] For competition, C4^ATTO655 peptide (2 µM) or R9LQK peptide (200 µM) were added. (B) Binding of C4F peptide is not affected by CP^Bs. C4F peptides (50 nM) were mixed with TmrAB (4 µM), and fluorescence anisotropy was monitored as described in (A). For competition, C4^ATTO655 (10 µM) or CP^Bs (6 µM) were added. […] TmrAB (0.2 µM) were immobilized on SPA beads and incubated with ATP (3 μM, traced with ^3H-ATP) in the presence and absence of CP^Bs (1 µM each) for 30 min on ice. ATP binding was monitored by SPA. Background values were determined after releasing TmrAB complexes from the beads by adding imidazole (200 mM). The background signal in the absence of CP^Bs was set to 0 cpm. […] As this is an equilibrium experiment, this can be rationalized by the fact that CP13 stabilizes the ATP-bound OF conformer. Figure 4—source data 1. Source data for Figure 4.
To determine equilibrium binding constants, CP^Fs (50 nM) were incubated with increasing concentrations of TmrAB-containing or empty liposomes. To probe the conformational selectivity, CP^Fs (50 nM) were mixed with detergent-solubilized IF TmrAB or OF TmrA^EQB. Before, OF TmrA^EQB was nucleotide-trapped by incubation with ATP (1 mM) and MgCl2 (3 mM) in the absence of CP^Fs for 5 min at 45°C. […] For peptide competition studies, RRYC^fluoresceinKSTEL (C4F, 50 nM) were incubated with detergent-solubilized TmrAB (4 µM), CP^Bs (6 µM), or C4^ATTO655 (10 µM). […] Fluorescence anisotropy was analyzed at λex/em of 485/520 nm using a microplate reader (CLARIOstar, BMG LABTECH). Fluorescence anisotropy was calculated using:(1) r=I||−I⊥/I||+2⋅I⊥ with I||: parallel intensity and I⊥: perpendicular intensity. Binding of CP^Fs were fitted by a one-site binding model (Langmuir 1:1) using:(2) Y=Bmax∙[L]/KD+[L] with Y: binding, Bmax: maximal binding, KD: equilibrium dissociation constant, and [L]: ligand concentration. Data represent mean ± SD from three experiments.

[2] = CP^F 50 nM + TmrAB + competitor C4^ATTO655 peptide 2 µM
[3] = CP^F 50 nM + TmrAB + competitor R9LQK peptide 200 µM
[4] = listed as -: CP^F 50 nM before addition of TmrAB
[5] = listed as TmrAB: CP^F 50 nM + TmrAB 0.5-0.7 µM, no competitor

## CC[C@H](C)[C@@H]1NC(=O)[C@H]([C@@H](C)O)NC(=O)[C@H](CC(C)C)NC(=O)[C@H](Cc2c[nH]c3ccccc23)NC(=O)[C@H](Cc2ccccc2)NC(=O)[C@H](CC(N)=O)NC(=O)[C@H](CCC(=O)O)NC(=O)[C@H](CC(C)C)NC(=O)[C@H](CS)NC(=O)[C@H](Cc2c[nH]cn2)NC(=O)[C@H](CO)NC(=O)[C@@H](Cc2ccc(O)cc2)NC(=O)CSC[C@@H](C(=O)NCC(=O)N[C@@H](CO)C(=O)NCCC(=O)NCCC(=O)N[C@@H](CCCNC(=N)N)C(=O)N[C@@H](CCCCNC(=O)c2ccc3c(c2)C(=O)OC32c3ccc(O)cc3Oc3cc(O)ccc32)C(N)=O)NC(=O)[C@H](CC(C)C)NC1=O [CP6] ({CH2CO}-[dY]SHCLENFWLTILCGS[βAla][βAla]RK(5FAM)-NH2; thioether N-14)
[1]; amount equal to 0.5000 µM
  Bound CP^F: -6.19%
TmrAB; [2]
  Bound CP^F, fluorescence anisotropy: 0.109
TmrAB; [3]
  Bound CP^F, fluorescence anisotropy: 0.101
TmrAB; [4]
  Bound CP^F, fluorescence anisotropy: 0.022
TmrAB; [5]
  Bound CP^F, fluorescence anisotropy: 0.111

## CC(C)C[C@@H]1NC(=O)[C@H](Cc2ccccc2)NC(=O)CNC(=O)[C@H](CO)NC(=O)[C@H](Cc2ccccc2)NC(=O)[C@H](CC(=O)O)NC(=O)[C@@H]2CCCN2C(=O)[C@H]([C@@H](C)O)NC(=O)[C@@H](Cc2ccc(O)cc2)NC(=O)CSC[C@@H](C(=O)NCC(=O)N[C@@H](CO)C(=O)NCCC(=O)NCCC(=O)N[C@@H](CCCNC(=N)N)C(=O)N[C@@H](CCCCNC(=O)c2ccc3c(c2)C(=O)OC32c3ccc(O)cc3Oc3cc(O)ccc32)C(N)=O)NC(=O)[C@H](C)NC(=O)[C@H](CC(N)=O)NC(=O)[C@H](CCCNC(=N)N)NC(=O)[C@H](CC(C)C)NC(=O)[C@H](Cc2ccccc2)NC(=O)[C@H](C)NC1=O [CP12] ({CH2CO}-[dY]TPDFSGFLAFLRNACGS[βAla][βAla]RK(5FAM)-NH2; thioether N-16)
[1]; amount equal to 0.5000 µM
  Bound CP^F: -0.19%
TmrAB; [2]
  Bound CP^F, fluorescence anisotropy: 0.160
TmrAB; [3]
  Bound CP^F, fluorescence anisotropy: 0.155
TmrAB; [4]
  Bound CP^F, fluorescence anisotropy: 0.025
TmrAB; [5]
  Bound CP^F, fluorescence anisotropy: 0.168

## CC[C@H](C)[C@@H]1NC(=O)[C@H](Cc2c[nH]c3ccccc23)NC(=O)[C@H](CC(N)=O)NC(=O)[C@H](C)NC(=O)[C@H](CO)NC(=O)[C@@H]2CCCN2C(=O)[C@H](CC(=O)O)NC(=O)[C@@H](Cc2ccc(O)cc2)NC(=O)CSC[C@@H](C(=O)NCC(=O)N[C@@H](CO)C(=O)NCCC(=O)NCCC(=O)N[C@@H](CCCNC(=N)N)C(=O)N[C@@H](CCCCNC(=O)c2ccc3c(c2)C(=O)OC32c3ccc(O)cc3Oc3cc(O)ccc32)C(N)=O)NC(=O)[C@H]([C@@H](C)O)NC(=O)[C@H](CC(C)C)NC(=O)[C@H](CC(C)C)NC(=O)[C@H](C(C)C)NC(=O)[C@H](CC(C)C)NC1=O [CP13] ({CH2CO}-[dY]DPSANWILVLLTCGS[βAla][βAla]RK(5FAM)-NH2; thioether N-14; C-terminus assumed)
[1]; amount equal to 0.2500 µM
  Bound CP^F: 3.65%
TmrAB; [2]
  Bound CP^F, fluorescence anisotropy: 0.122
TmrAB; [3]
  Bound CP^F, fluorescence anisotropy: 0.123
TmrAB; [4]
  Bound CP^F, fluorescence anisotropy: 0.025
TmrAB; [5]
  Bound CP^F, fluorescence anisotropy: 0.127

## CC(C)[C@@H]1NC(=O)[C@H](Cc2ccccc2)NC(=O)[C@@H]2CCCN2C(=O)[C@H](CC(N)=O)NC(=O)[C@H](Cc2c[nH]c3ccccc23)NC(=O)[C@H](C(C)C)NC(=O)[C@H](Cc2ccc(O)cc2)NC(=O)[C@H](Cc2ccccc2)NC(=O)[C@@H](Cc2ccc(O)cc2)NC(=O)CSC[C@@H](C(=O)NCC(=O)N[C@@H](CO)C(=O)NCCC(=O)NCCC(=O)N[C@@H](CCCNC(=N)N)C(=O)N[C@@H](CCCCNC(=O)c2ccc3c(c2)C(=O)OC32c3ccc(O)cc3Oc3cc(O)ccc32)C(N)=O)NC(=O)[C@H](CCCCN)NC(=O)[C@H](Cc2ccccc2)NC1=O [CP14] ({CH2CO}-[dY]FYVWNPFVFKCGS[βAla][βAla]RK(5FAM)-NH2; thioether N-12; C-terminus assumed)
[1]; amount equal to 0.2500 µM
  Bound CP^F: -5.24%
TmrAB; [2]
  Bound CP^F, fluorescence anisotropy: 0.143
TmrAB; [3]
  Bound CP^F, fluorescence anisotropy: 0.140
TmrAB; [4]
  Bound CP^F, fluorescence anisotropy: 0.027
TmrAB; [5]
  Bound CP^F, fluorescence anisotropy: 0.141

Source: article PMC8116058, “De novo macrocyclic peptides dissect energy coupling of a heterodimeric ABC transporter by multimode allosteric inhibition” (eLife, 2021)
